Measured values from PubChem BioAssay AID1918938 (Molecular Pharmacology Branch, DTP, NCI, 2023).

Test system: 556581-035-R-J1-PDC complex spheroid viability
Assay: Anticancer human tumor 556581-035-R-J1-PDC patient-derived ovarian carcinoma cell line growth inhibition
Conditions: for IC50: curve of first compound; for viability, T/C: stronger effect = lower value
Procedure, shortened: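 Multicellular complex spheroids of tumor cells with human endothelial cells (HUVEC) and mesenchymal stem cells; the LSD1 inhibitor iadademstat was combined with standard-of-care or investigational agents. Top concentration at or near clinical Cmax, half-log dilutions; final DMSO ≤0.25%.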

[1] = second compound 0.1 µM, first compound 0.00949 µM
[2] = second compound 0.1 µM, first compound 0.03 µM
[3] = second compound 0.1 µM, first compound 0.0949 µM
[4] = second compound 0.1 µM, first compound 0.3 µM
[5] = second compound 0.1 µM, first compound 0.949 µM
[6] = second compound 0.1 µM, first compound 3 µM
[7] = second compound 0.316 µM, first compound 0.00949 µM
[8] = second compound 0.316 µM, first compound 0.03 µM
[9] = second compound 0.316 µM, first compound 0.0949 µM
[10] = second compound 0.316 µM, first compound 0.3 µM
[11] = second compound 0.316 µM, first compound 0.949 µM
[12] = second compound 0.316 µM, first compound 3 µM
[13] = second compound 1 µM, first compound 0.00949 µM
[14] = second compound 1 µM, first compound 0.03 µM
[15] = second compound 1 µM, first compound 0.0949 µM
[16] = second compound 1 µM, first compound 0.3 µM
[17] = second compound 1 µM, first compound 0.949 µM
[18] = second compound 1 µM, first compound 3 µM
[19] = second compound 3.16 µM, first compound 0.00949 µM
[20] = second compound 3.16 µM, first compound 0.03 µM
[21] = second compound 3.16 µM, first compound 0.0949 µM
[22] = second compound 3.16 µM, first compound 0.3 µM
[23] = second compound 3.16 µM, first compound 0.949 µM
[24] = second compound 3.16 µM, first compound 3 µM
[25] = second compound 10 µM, first compound 0.00949 µM
[26] = second compound 10 µM, first compound 0.03 µM
[27] = second compound 10 µM, first compound 0.0949 µM
[28] = second compound 10 µM, first compound 0.3 µM
[29] = second compound 10 µM, first compound 0.949 µM
[30] = second compound 10 µM, first compound 3 µM
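Note: spheroids exposed to agents for seven days.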
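Throughout, for viability, T/C: 100% = DMSO vehicle control wells.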

| Structure (SMILES) | IC50 (second compound 0.1 µM) [µM] | IC50 (second compound 0.316 µM) [µM] | IC50 (second compound 1 µM) [µM] | IC50 (second compound 3.16 µM) [µM] | IC50 (second compound 10 µM) [µM] | viability, T/C [1] [%] | viability, T/C [2] [%] | viability, T/C [3] [%] | viability, T/C [4] [%] | viability, T/C [5] [%] | viability, T/C [6] [%] | viability, T/C [7] [%] | viability, T/C [8] [%] | viability, T/C [9] [%] | viability, T/C [10] [%] | viability, T/C [11] [%] | viability, T/C [12] [%] | viability, T/C [13] [%] | viability, T/C [14] [%] | viability, T/C [15] [%] | further results |
| --- | --- | --- | --- | --- | --- | --- | --- | --- | --- | --- | --- | --- | --- | --- | --- | --- | --- | --- | --- | --- | --- |
| NS(=O)(=O)OCC1CC(n2ccc3c(NC4CCc5ccccc54)ncnc32)CC1O (stereo not given) + NC1CC1c1ccc(-c2cccc(O)c2)cc1 | 0.321 | 0.28 | 0.334 | 0.255 | 0.134 | 104 | 81.6 | 66.4 | 53.8 | 35.4 | 15.2 | 96.3 | 81 | 66.1 | 53.6 | 27 | 18.5 | 92.5 | 81.4 | 77.5 | viability, T/C [16]: 51.7%; viability, T/C [17]: 29.5%; viability, T/C [18]: 20.7%; viability, T/C [19]: 98.9%; viability, T/C [20]: 75.7%; viability, T/C [21]: 68.5%; viability, T/C [22]: 45.9%; viability, T/C [23]: 32.6%; viability, T/C [24]: 17.4%; viability, T/C [25]: 87.8%; viability, T/C [26]: 74.4%; viability, T/C [27]: 56.4%; viability, T/C [28]: 35.2%; viability, T/C [29]: 20.3%; viability, T/C [30]: 8.52% |
| Nc1ccccc1NC(=O)c1ccc(CNC(=O)OCc2cccnc2)cc1 + NC1CC1c1ccc(-c2cccc(O)c2)cc1 | 0.0876 | 0.0953 | 0.0859 | 0.0974 | 0.094 | 91.9 | 77.1 | 47.3 | 21.1 | 6.12 | 0.47 | 92.1 | 70.1 | 54.5 | 23.7 | 8.22 | 0.62 | 92.8 | 64.3 | 55.9 | viability, T/C [16]: 24.9%; viability, T/C [17]: 9.16%; viability, T/C [18]: 5.91%; viability, T/C [19]: 90.2%; viability, T/C [20]: 72.7%; viability, T/C [21]: 51.5%; viability, T/C [22]: 26.6%; viability, T/C [23]: 10.4%; viability, T/C [24]: 0.51%; viability, T/C [25]: 86.5%; viability, T/C [26]: 69.1%; viability, T/C [27]: 46.5%; viability, T/C [28]: 37.3%; viability, T/C [29]: 10.1%; viability, T/C [30]: 0.3% |
| O=C(C=Cc1cccc(S(=O)(=O)Nc2ccccc2)c1)NO + NC1CC1c1ccc(-c2cccc(O)c2)cc1 | 0.0658 | 0.0707 | 0.0692 | 0.0665 | 0.0636 | 85.4 | 75.1 | 36.9 | 14.6 | 1.81 | 0.79 | 78.8 | 69.1 | 43.9 | 8.31 | 0.59 | 0.61 | 79.5 | 72.9 | 40.6 | viability, T/C [16]: 13.6%; viability, T/C [17]: 0.92%; viability, T/C [18]: 0.19%; viability, T/C [19]: 82.8%; viability, T/C [20]: 74.1%; viability, T/C [21]: 37.5%; viability, T/C [22]: 16.5%; viability, T/C [23]: 0.75%; viability, T/C [24]: 1.27%; viability, T/C [25]: 74%; viability, T/C [26]: 65.2%; viability, T/C [27]: 41.4%; viability, T/C [28]: 17.4%; viability, T/C [29]: 0.56%; viability, T/C [30]: 1.22% |
